14 compounds from ChEMBL document CHEMBL5252567, “Tetrazole-based inhibitors of the bacterial enzyme N-succinyl-l,l-2,6-diaminopimelic acid desuccinylase as potential antibiotics” (Bioorg Med Chem Lett, 2023) can be followed below.

Experiment [1] addresses T1, Succinyl-diaminopimelate desuccinylase (Haemophilus influenzae (strain ATCC 51907 / DSM 11121 / KW20 / Rd), UniProt P44514).
T1 sequence (P44514 whole entry): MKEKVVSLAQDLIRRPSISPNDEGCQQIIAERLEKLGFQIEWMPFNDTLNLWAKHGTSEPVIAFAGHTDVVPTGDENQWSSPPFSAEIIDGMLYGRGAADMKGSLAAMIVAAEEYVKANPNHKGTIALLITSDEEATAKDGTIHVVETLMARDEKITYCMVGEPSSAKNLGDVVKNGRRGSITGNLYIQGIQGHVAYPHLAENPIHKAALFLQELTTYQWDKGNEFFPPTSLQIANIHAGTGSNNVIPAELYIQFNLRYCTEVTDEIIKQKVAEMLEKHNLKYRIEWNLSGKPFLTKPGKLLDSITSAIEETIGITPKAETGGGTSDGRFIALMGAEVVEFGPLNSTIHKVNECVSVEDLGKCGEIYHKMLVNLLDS
Briefly: Inhibition of Haemophilus influenzae DapE.

Experiment [2] has as its target T2, Succinyl-diaminopimelate desuccinylase (Haemophilus influenzae (strain ATCC 51907 / DSM 11121 / KW20 / Rd)) (UniProt P44514).
T2 sequence (whole entry): T1 sequence (P44514 whole entry)
Briefly: Inhibition of Haemophilus influenzae DapE at 100 uM relative to control.

In experiment [3] the target is T2, Succinyl-diaminopimelate desuccinylase (Haemophilus influenzae (strain ATCC 51907 / DSM 11121 / KW20 / Rd)). Briefly: Inhibition of Haemophilus influenzae DapE at 75 uM relative to control.

As for `O=C(CSc1nnnn1-c1ccccc1)NCc1ccccc1`, it took 103 µM to reach half-maximal inhibition in experiment [1] (IC50). In experiment [2], this compound gave an inhibition of 61.5%.

In the case of `CC(Sc1nnnn1-c1ccccc1)C(=O)Nc1ccccc1` (centres undefined), half-maximal inhibition in experiment [1] (IC50) was put at 134 µM. For the same compound, the inhibition in experiment [2] worked out at 55.4%.

On to `CC(Sc1nnnn1-c1ccccc1)C(=O)Nc1cnccn1` (centres undefined), for which the inhibition in experiment [2] is 9.7%.

For `O=C(CSc1nnnn1-c1ccccc1)Nc1ccc(Cl)cn1`, the inhibition in experiment [3] came out at 39.5%.

On to `O=C(CSc1nnnn1-c1ccccc1)Nc1nccs1`, for which, in experiment [1], it took 50.2 µM to reach half-maximal inhibition (IC50). For the same compound, the inhibition in experiment [2] is 71.5%.

In turn, `CC(Sc1nnnn1-c1ccccc1)C(=O)Nc1nccs1` (centres undefined) gave an inhibition in experiment [2] of 35.6%.

In experiment [1], `O=C(CSc1nnnn1-c1ccccc1)Nc1ccccc1` came in with an IC50 of 54.3 µM. In experiment [2], this compound yielded an inhibition of 83.8%.

Regarding `CC(Sc1nnnn1-c1ccccc1)C(=O)Nc1ccc(Cl)cn1` (centres undefined), in experiment [1], the IC50 was 57.3 µM. Also, the inhibition in experiment [2] worked out at 71%.

`CC(Sc1nnnn1-c1ccccc1)C(=O)Nc1ccccn1` (centres undefined) returned an inhibition in experiment [2] of 23.2%.

Regarding `CC(Sc1nnnn1-c1ccccc1)C(=O)NCc1ccccc1` (centres undefined), the inhibition in experiment [2] was determined as 36.3%.

Compound `CC(Sc1nnnn1-c1ccccc1)C(=O)Nc1ccon1` (centres undefined) gave an inhibition in experiment [2] of 17.2%.

In the case of `O=C(CSc1nnnn1-c1ccccc1)Nc1ccon1`, the inhibition in experiment [2] was found to be 49.2%.

In turn, `O=C(CSc1nnnn1-c1ccccc1)Nc1cnccn1` returned an inhibition in experiment [2] of 10.2%.

`O=C(CSc1nnnn1-c1ccccc1)Nc1ccccn1` had an inhibition in experiment [2] of 26.5%.
